According to a melting point compilation (Tetko et al.):

Row | SMILES | melting point [°C]
1 | CC(=O)C1(O)CCC2(C)C(CC(=O)C3C4CCC(=O)C4(C)CCC32)C1 (stereo unspecified) | 185 to 191
2 | COc1cccc(C=C(C)[N+](=O)[O-])c1 | 45 to 47
3 | CC(C)[C@H](N)P(=O)(O)O | 270
4 | COc1ccc(C=C(C(=O)O)C(=Cc2ccc(OC)cc2)C(=O)O)cc1 | 263
5 | COc1ccccc1C(=O)N(NC(=O)c1ccccc1)C(C)(C)C | 182
6 | O=[N+]([O-])/C=C/c1ccccc1 | 58
7 | COP(=S)(OC)Oc1cc(Cl)c(Br)cc1Cl | 53.5
8 | N#CCc1csc2ccccc12 | 64
9 | S=C(NC1CCCCC1)C(=S)NC1CCCCC1 | 150 to 152
10 | O=C1C=C(NCc2ccc(Cl)c(Cl)c2)C(=O)c2ccccc21 | 217
11 | Nc1cccc(Cl)c1C(=O)O | 159
12 | CC(=O)Nc1ccc(Br)c(F)c1 | 151
13 | CC(C)(C)OC(=O)NCc1cccc(CO)c1 | 51 to 55
14 | C=C1C(=O)OC2CC(C)C3C=CC(=O)C3(C)C(O)C12 (stereo unspecified) | 168
15 | Cc1ccc(NC(=O)C(C(F)(F)F)C(F)(F)F)c(C)c1 | 193
16 | OC(c1ccc(Cl)cc1)(c1cncnc1)c1ccccc1Cl (stereo unspecified) | 118
17 | O=[N+]([O-])c1ccc(Br)c(C(F)(F)F)c1 | 43
18 | CC12CCC(=O)C=C1CCC1C2CCC2(C)C(O)CCC12 (stereo unspecified) | 153
19 | O=C(O)CCP(=O)(O)O | 165 to 166
20 | CC12C=CC(=O)C=C1CCC1C2CCC2(C)C(O)CCC12 (stereo unspecified) | 165
21 | OCC1CCCCN1 (stereo unspecified) | 69
22 | CCCCCCCCCCCCCCCC(=O)NCCO | 98.5
23 | O=C(NNc1ccccc1)c1ccccc1 | 168
24 | C=CC1CN2CCC1CC2C12Nc3ccccc3C1(O)CCO2 (stereo unspecified) | 186
25 | CCCF | -159

Row | SMILES | melting point [°C]
26 | OC1CN2CCCC(O)C2C1O (stereo unspecified) | 144
27 | O=[N+]([O-])c1ccccc1OCCN1CCOCC1 | 44 to 45
28 | COc1cc2c(c(OC)c1OC)-c1ccc(O)c(=O)cc1C(NC(C)=O)CC2 (stereo unspecified) | 178
29 | CCCc1cccc(C)c1 | -82.5
30 | C=CC(=O)OCCOCC | -47
31 | O=C(O)c1cccc(-c2cnco2)c1 | 259 to 261
32 | Ic1cn(C(c2ccccc2)(c2ccccc2)c2ccccc2)cn1 | 224 to 225
33 | C=CCCCCCCCCC(=O)OC | -27.5
34 | CC1(C)OC(=O)C(=Cc2ccc(Br)o2)C(=O)O1 | 116
35 | COC(=O)c1ccc2ncccc2c1 | 88 to 89
36 | N#C/C(=N\Nc1ccccc1[N+](=O)[O-])c1nc2ccccc2[nH]1 | 270
37 | Fc1cc(Cl)cc(CBr)c1 | 25 to 30
38 | CCOC(=O)C1(c2ccccc2)CCN(C)CC1 | 270
39 | CC(=O)Nc1ccc(Cl)cc1[N+](=O)[O-] | 98
40 | O=C1Nc2ccc(Cl)cc2C(c2ccccc2Cl)=NC1O (stereo unspecified) | 166
41 | NC(=NO)c1ccccc1 | 75 to 77
42 | O=C(O)c1cccc(-c2ccncc2)c1 | 268
43 | O=C(O)C1CCN(c2ccc(C(F)(F)F)cn2)CC1 | 162 to 164
44 | C1CCN(C2CCNCC2)CC1 | 68
45 | NCCSc1cc(C(F)(F)F)nc2ccccc12 | 97 to 99
46 | O=[N+]([O-])c1ccccc1S(=O)(=O)Cl | 67
47 | O=c1[nH]c2ccc([N+](=O)[O-])cc2c(=O)o1 | 259 to 263
48 | O=C(Oc1cccc2cccnc12)c1ccccc1 | 119
49 | O=C(O)c1ccnc(N2CCCC2)c1 | 211 to 212

The remaining lines, values ahead:

Row | melting point [°C] | SMILES
50 | 136 | CC(C)NC(=O)C(C(F)(F)F)C(F)(F)F
51 | 32.5 | C1CCSSC1
52 | 48 | CCCCCCCCCCCCCCCC(C)=O
53 | 290 | Cn1c(=O)c2[nH]c(Cl)nc2n(C)c1=O
54 | 223 to 228 | NC(=S)c1ccc(-c2csnn2)cc1
55 | 202 | CN(C)c1ccc(C(=O)C(=O)c2ccc(N(C)C)cc2)cc1
56 | 206 to 208 | NNC(=O)c1cc2ccccc2cc1O
57 | 196 | CC(C)(C)N(NC(=O)c1ccccc1)C(=O)c1ccccc1Br
58 | 56.8 | CC=CC=CC=CC=O
59 | 64 | COc1c(C)cc(N)cc1C
60 | 124 | CC1OC(=O)C(C)OC1=O (racemic)
61 | 81 to 83 | Cc1ccc(COc2cccc(F)c2C#N)cc1
62 | 261 | O=C(O)c1cncc(-c2cccs2)c1
63 | 144 | Cn1c(=O)c2c(ncn2CC2OCCO2)n(C)c1=O
64 | 61.5 | CCC(CC)(CO)CO
65 | 90 to 92 | O=S1(=O)CC=C(Cl)C1
66 | 273 | Sc1nccn1-c1cc(Cl)ccc1Cl
67 | 62 to 70 | Brc1cccc(Cn2ccnc2)c1
68 | 111 | Cc1ccc(OC(=O)C(C)(c2ccccc2)c2ccccc2)cc1
69 | 181 | CSc1cc2c(c3c1CCc1ccccc1-3)c(=O)n(-c1ccccc1)n2C
70 | 166 | O=C(Nc1ccccc1CCc1ccccc1)c1ccccc1
71 | 192 | CC1(C)OC(=O)C(=NNc2cccc([N+](=O)[O-])c2)C(=O)O1
72 | 61 | CCN(CC)CCOC(=O)c1ccc(N)cc1
73 | 128 | COc1ccccc1-c1ccc(C=NO)o1

Row | melting point [°C] | SMILES
74 | 203 | Nc1cc(C(Cl)=C(Cl)Cl)c(S(N)(=O)=O)cc1S(N)(=O)=O
75 | 40.5 | CCCCCCCCCCCCc1ccc(N)cc1
76 | 8 | COc1ccc(CCC(C)=O)cc1
77 | 143 to 144 | c1ccc2c(c1)CC1(OCCO1)c1ccccc1CC21OCCO1
78 | 107 to 108 | Cc1ccccc1-c1cc(-c2ccccc2)[nH]n1
79 | 134 to 135 | OCCCc1nc2cc(C(F)(F)F)ccc2[nH]1
80 | 300 | CCCCC(N)C(=O)O (stereo unspecified)
81 | 46 to 50 | ClCC1CN(Cc2ccccc2)CCO1 (stereo unspecified)
82 | 121 to 126 | O=C(O)c1c(F)cccc1I
83 | 33 to 38 | COC(=O)c1cccc(Cl)c1Cl
84 | 125 to 126 | Clc1ncnc2ccsc12
85 | 206 | O=C(O)c1cnc2ccccc2n1
86 | 108 | COC(=O)C1(S(=O)(=O)c2ccccc2)CCC1
87 | 82 | COc1cc(O)c(C(C)=O)c(OC)c1
88 | 191 to 192 | CC1OC(Oc2ccc([N+](=O)[O-])cc2)C(O)C(O)C1O (stereo unspecified)
89 | 42.8 | Clc1cc(Cl)cc(C2(CC(Cl)(Cl)Cl)CO2)c1 (stereo unspecified)
90 | 53 to 54 | O=C(O)c1ccccc1OC1CCOCC1
91 | 128 | O=C(CC(C(=O)c1ccccc1)c1ccccc1)c1ccccc1 (stereo unspecified)
92 | -1.1 | CC(C)OC(=O)CCCCC(=O)OC(C)C
93 | 62 | CCOC(=O)c1cnc(SC)nc1Cl
94 | 256 to 257 | O=C(O)c1ccc(N2CCOCC2)nc1
95 | 74 to 75 | O=Cc1ccc2ncccc2c1
96 | 46 | OCc1c(F)ccc(F)c1F
